Patent US20160287534A1, “METHODS FOR REVERSING FIBROSIS” (The University of Connecticut, priority 2015, published 2016)

Tests used:
LX-2 cells [1] = test: qRT-PCR of fibrogenic genes in LX-2 cells (Example 2); format: cell-based
Protocol: (§1) Mouse primary HSCs were isolated from C57BL/6J, nuclear erythroid 2-related factor 2 (NRF2) knockout (Nrf2−/−), and wild-type mice using a pronase/collagenase digestion method as described herein Example 1. The cells were then cultured on untreated petri dishes (BD Falcon, Franklin Lakes, N.J.), and maintained in a low-glucose DMEM medium supplemented with 10% FBS, 4 mM L-glutamine, and P/S (100 U/100 μg per mL). Human primary HSCs (Zen-Bio, Research Triangle Park, N.C.) were maintained in a low-glucose DMEM medium containing 2% FBS, 4 mM L-glutamine, 1× nonessential amino acids, 1× vitamins, and P/S (100 U/100 μg per mL). The cells were seeded on a collagen-coated plate for experiments (Sarstedt, Newton, N.C.). LX-2 cells, kindly provided by Dr. Scott Friedman at the Icahn School of Medicine at Mount Sinai (New York, N.Y.), were maintained in a low-glucose DMEM supplemented with 2% FBS, 4 mM L-glutamine, and P/S (100 U/100 μg per mL). All cells were cultured in a 37° C. humidified cell culture chamber with 5% CO2. Cell culture supplies were purchased from HyClone unless stated otherwise (Thermo Scientific, Logan, Utah).
Total RNA extraction, cDNA synthesis, and qRT-PCR were conducted using a Bio-Rad CFX96 Real-Time system (Bio-Rad, Hercules, Calif.) as previously described (Id.). Primer sequences will be available upon request. […]

aHSCs = test: Reversion of aHSCs to iHSCs: morphology, qRT-PCR, α-SMA protein; format: cell-based, mouse
Protocol: (§2) ASTX, provided by Fuji Chemical Industry Co., Ltd. (Toyama, Japan), was prepared in DMSO as described herein in Example 1. After plated on an uncoated dish, mouse qHSCs were incubated with 25 μM ASTX during activation. aHSCs, which were prepared by culturing qHSCs on an uncoated dish for 6 d, were incubated with 25 μM ASTX for 2 or 4 more days. Also, cells were incubated with 3 μM tert-butyl hydrogen peroxide (tBHP, Thermo Scientific) for 12 h with or without 25 μM ASTX. Medium containing ASTX was replenished daily and DMSO vehicle control was always run in parallel. Human primary HSC were treated with 25 μM ASTX for 24 h, after which they were activated by 3 ng/mL of TGFβ1 (Peprotech, Rocky Hill, N.J.) for 24 h.
(§3) Total RNA extraction, cDNA synthesis, and qRT-PCR were conducted using a Bio-Rad CFX96 Real-Time system (Bio-Rad, Hercules, Calif.) as previously described (Id.). Primer sequences will be available upon request.
Whole cell lysates and human tissue protein extracts were prepared and Western blot analysis were performed as described (Id.) using antibodies against α-SMA (Sigma, St. Louis, Mo.), HDAC3 (Santa Cruz Biotechnology, Santa Cruz, Calif.), HDAC4 (Santa Cruz Biotechnology), HDAC9 (Abcam, Cambridge, Mass.; Novus Biologicals, Littleton, Colo.), Col1A1 (Sigma). β-tubulin (Santa Cruz) or glyceraldehyde 3-phosphate dehydrogenase (GAPDH) (Santa Cruz) was used as a loading control.

LX-2 cells [2] = test: qRT-PCR of LX-2 cells transfected with scramble control or Smad3 siRNA; format: cell-based
Protocol: Total RNA extraction, cDNA synthesis, and qRT-PCR were conducted using a Bio-Rad CFX96 Real-Time system (Bio-Rad, Hercules, Calif.) as previously described (see Park et al. Nutr. Res. 2008, vol. 28, pp. 83-91; Rasmussen et al. J. Nutr. 2008, vol. 138, pp. 476-481). Gene sequences were obtained from the GenBank database and primers were designed using Beacon Designer (Premier Biosoft, Palo Alto, Calif.). Primer sequences are available (see supplemental table of Yang et al. Biochimica et Biophysica Acta 2015, vol. 1850, pp. 178-185).
LX-2 cells were transfected with either Silencer® Negative Control scrambled siRNA (Ambion, Invitrogen, Grand Island, N.Y.) or siGENOME SMARTpool SMAD3 siRNA (siGenome, Thermo Scientific, Logan, Utah) as described previously (see Angulo N. Engl. J. Med. 2002, vol. 346, pp. 1221-1231). Twenty four hours after the transfection, cells were pretreated with 25 μM ASTX for 12 h, after which they were stimulated by 2 ng/mL TGFβ1 for additional 12 h for subsequent qRT-PCR analysis.

[3] = test system: HSCs from wild-type and Nrf2−/− mice; test: qRT-PCR of HSCs from wild-type and Nrf2−/− mice; format: cell-based, mouse
Protocol: as §1, §2, §3

LX-2 cells [4] = test: Reactive oxygen species (ROS) measurement in LX-2 cells stimulated with TGFβ1 or tBHP; format: cell-based
Protocol: Cellular ROS levels were measured in LX-2 cells as previously described (see Lee et al. J. Nutr. Biochem. 2013, vol. 25, iss. 4, pp. 404-411). Briefly, LX-2 cells were plated in a black 24-well plate (Wallac Oy, Turku, Finland). When cells reached ˜90% confluency, they were pre-incubated with 5, 10 or 25 μM ASTX for 24 h and subsequently stimulated with 2 ng/mL TGFβ1 or 10 μM tert-butyl hydrogen peroxide (tBHP, Sigma, St. Louis, Mo.) for additional 24 h. cells were then incubated with 5 μM dichlorofluorescein (Sigma, St. Louis, Mo.) for 30 min and fluorescence was read at an excitation wavelength of 485 nm and an emission wavelength of 530 nm. The data were expressed as fluorescent intensity per μg of cell protein.

## CC1=C(/C=C/C(C)=C/C=C/C(C)=C/C=C/C=C(C)/C=C/C=C(C)/C=C/C2=C(C)C(=O)C(O)CC2(C)C)C(C)(C)CC(O)C1=O (centres unmarked) [ASTX, astaxanthin]
LX-2 cells [1]; LX-2 cells pretreated with ASTX 12 h (FIG. 13A)
  basal levels of α-SMA and Col1A1 expression: repressed
LX-2 cells [1]; LX-2 cells, ASTX 12 h, then 3 ng/mL TGFβ1 12 h (FIG. 13A)
  α-SMA and Col1A1 expression induced by TGFβ1: attenuated
aHSCs; aHSCs treated with ASTX for 2 or 4 d (FIG. 9A)
  cell morphology (lipid droplets): reappearance of cytoplasmic lipid droplets
aHSCs; aHSCs treated with ASTX for 2 d (FIG. 9B)
  α-SMA and Col1A1 mRNA: significantly decreased
aHSCs; aHSCs, ASTX for 2 d (FIG. 9D)
  ADRP mRNA levels, control vs ASTX-treated: no significant difference
  LRAT mRNA: markedly increased
  SREBP1c mRNA levels: significantly decreased
aHSCs; aHSCs, day 8, ASTX for 2 d (FIG. 9C)
  α-SMA protein: significantly decreased
LX-2 cells [2]; LX-2 cells transfected with scrambled control, 25 μM ASTX 12 h (FIG. 4)
  induction of fibrogenic genes by TGFβ1: attenuated
LX-2 cells [2]; Smad3-deficient (siRNA) LX-2 cells
  expression of α-SMA: minimal inhibitory effect
LX-2 cells [2]; regardless of Smad3
  increase in TGFβ1 mRNA by TGFβ1 itself: inhibited
[3]; both wild-type and Nrf2−/− HSCs, activated 6 d with ASTX (FIG. 8C)
  α-SMA and Col1A1 mRNA: able to decrease
[3]; both wild-type and Nrf2−/− HSCs, tBHP at day 6 for 12 h (FIG. 8D)
  tBHP-increased α-SMA expression: attenuated
[3]; wild-type HSCs (FIG. 8D)
  NRF2 expression: significantly decreased
LX-2 cells [4]; 25 μM ASTX, 2 ng/mL TGFβ1
  increase in cellular ROS levels induced by TGFβ1: completely abolished
LX-2 cells [4]; 25 μM ASTX, 10 μM tBHP
  increase in cellular ROS levels induced by tBHP: completely abolished
LX-2 cells [4]; LX-2 cells pretreated with 5, 10 or 25 μM ASTX 24 h (FIGS. 1B, 1C)
  cellular ROS levels increased by TGFβ1 and tBHP: decreased
